Laboratory results: US12637687B2, “Nucleic acid molecules, polypeptides having epoxy group-removing catalytic activity and use thereof” (SHANDONG AGRICULTURAL UNIVERSITY, priority 2020, dated 2026)

What was measured:
[1] = tested on: ThFhb7; parameters: species or system Thinopyrum ponticum; settings: in vivo
[2] = tested on: normal human esophageal epithelial cells (HEECs); assay: Cytotoxicity assay by CCK8 method; settings: 48 h treatment, CCK-8, OD450
[3] = tested on: pancreatic cancer cell line (PATU8988); assay: Cytotoxicity assay by CCK8 method; settings: PATU8988, 48 h treatment, CCK-8, OD450
[4] = tested on: ThFhb7; assay type: cell-based, Thinopyrum ponticum
[5] = tested on: human embryonic kidney cell 293-derived line (293T); assay: Cytotoxicity assay by CCK8 method; settings: 48 h treatment, CCK-8, OD450
[6] = In vitro enzymatic reaction system of ThFhb7 polypeptide (DON + GSH, LC-HRMS); assay type: biochemical
Experimental: The optimal conditions for the in vitro enzymatic reaction system of ThFhb7 polypeptide were established by gradient experiments of three different factors affecting the enzymatic reaction: • (1) the gradient of reaction enzyme amounts: 1 μg, 5 μg, 10 μg, 25 μg, and 50 μg; • (2) the pH gradient set with various buffers: ranging from 3.0 to 10.0, disodium hydrogen phosphate-citric acid buffer (pH=3.0, 4.0, 5.0), disodium hydrogen phosphate-potassium dihydrogen phosphate buffer (pH=6.0, 7.0), and Tris-phosphate buffer (pH=8.0, 9.0, 10.0); and • (3) the gradient of reaction temperatures: 4° C., 12° C., 15° C., 20° C., 25° C., 30° C., 37° C., 45° C., and 50° C.
The reaction was performed in a phosphate buffer (PBS) (pH=7.0), at 25° C. for 12 h, and samples were taken at 0 h, 0.5 h, 1 h, 3 h, and 6 h respectively for LC-HRMS analysis; through the area results of first-level scanning of LC-HRMS, the changes in the amounts of the two substances, DON as the reaction substrate and the GSH adduct as the reaction product, were obtained with proceeding of reaction, so as to obtain the optimal enzyme amount for the reaction, as shown in FIGS. 14A and 14B. […]

[7] = tested on: F. asiaticum; settings: in vivo
[8] = tested on: F. pseudograminearum; settings: in vivo
[9] = tested on: F. pseudograminearum; settings: in vivo; remark: listed apart in the source
[10] = tested on: Pichia pastoris; assay: DON tolerance of transgenic Pichia pastoris; assay type: cell-based; settings: YPDA media comprising 400 μM DON, 5 days

| Molecule | amounts decreased as compared with the control [1] | toxin significantly reduced as compared with wheat without ThFhb7 [1] | cell viability [2] | cell viability [3] | DON-GSH adduct in DON-treated yeast expressing the active polypeptide [4] | cell viability [5] | catalysis of vomitoxin into a glutathione adduct in vitro ([6]; DON 1 mg, GSH in PBS, 20° C., 24 h) | enzyme activity above 37° C. (DON-GSH cannot be detected) ([6]; above 37° C., pH 7.0, 25 μg enzyme) | diseased spot area on leaves vs KN199 [7] | diseased spot area on leaves vs KN199 [8] | death rate of transgenic plants vs wild type [9] | degree of disease at the stem base vs control [9] | growth viability vs transgenic yeast with the blank vector [10] |
| --- | --- | --- | --- | --- | --- | --- | --- | --- | --- | --- | --- | --- | --- |
| CC(=O)O[C@@H]1C[C@]2(C)[C@@]3(CO)[C@H](O)C(=O)C(C)=C[C@H]3O[C@H]1[C@@]21CO1 [3-ADON, 3-acetyl-deoxynivalenol] | about ⅔ | about ⅓ | – | – | – | – | – | – | – | – | – | – | – |
| CC1=C[C@H]2O[C@@H]3[C@H](O)C[C@](C)([C@@]2(CO)[C@H](O)C1=O)[C@]31CO1 [DON, deoxynivalenol] | about ⅔ | about ⅓ | decreases sharply | decreases sharply | detected | decreases sharply | – | – | – | – | – | – | – |
| ThFhb7: de-epoxidase from Thinopyrum ponticum; polypeptide having epoxy group-removing catalytic activity, amino acid sequence SEQ ID NO: 36, gene SEQ ID NO: 1 (protein, listed as Elytrigia ponticum) MATSASTSTPIIPTAIAGAPPVAGTCCAVAPTLSALALAPLAVPTTTTTVLMPAISSVAASLAVPACALPAAGSAPATLPIIHAPATASLVGASPAIAATLGATTPASGAGALPPPGLLATAVGAAMPGLLIPLSGIAASPGLAATAAPASAVAAAPTAHVGLMVHGLPLAPATAAVTLAGPVAAAGLSSTAALGMVGGAAALMMGSLAAMLGALAALPALAASGPPLLGGAATTAAMIVGGTLAMMAATLPVSGTGGAAACHGAIPGGLHAALALTAGVL | – | – | – | – | – | – | efficiently catalyze vomitoxin into a glutathione adduct | basically lost its activity | significantly reduced | significantly reduced | significantly lower | less severe | significantly higher |
